According to US4835157A, “Thieno- and furopyrimidine-2,4-dione piperidine derivatives as serotonin antagonists and alpha adrenergic blocking agents” (Ortho Pharmaceutical Corporation, priority 1988, dated 1989):
Read-outs that look alike come from different tables or passages of the source.

Tests used:
5HT2 [1] = biological target: T1, 5HT2 (Rattus norvegicus, UniProt P14842); test: 5HT2 Blockade in vivo (antagonism of 5HT induced pressor responses); set-up: Spontaneously hypertensive rats were anesthetized with sodium pentobarbital; from tissue; host or cells: whole animal: anesthetized spontaneously hypertensive rats (vasculature); species or system spontaneously hypertensive rats; settings: for ED50: rat, iv, read-out: 5-HT-Induced Pressor Response ED50
Procedure: Antagonism of 5HT induced pressor responses was used to assess 5HT2 blockade in vivo. Spontaneously hypertensive rats were anesthetized with sodium pentobarbital (50 mg/kg, i.p.). The right carotid artery and vein were cannulated for pressure recording and drug injection, respectively. The trachea was cannulated, the rat placed on a respirator and ventilated with room air at 50-60 breaths/minute. Rats were pretreated with prazosin hydrochloride (1 mg/kg, i.v., blous) and pentolinium tartrate (5 mg/kg, i.v., bolus). After 10 minutes equilibration, the rat was challenged with 5HT (100 μg/kg) which elevates mean arterial pressure (MAP) 60-100 mmHg; non-responsive rats were discarded.
After a baseline had been reestablished, bolus injections of 5HT (100 μg/kg, i.v.) were given and the MAP responses were evaluated both pre- and post-drug administration. 5HT challenges were repeated 10 minutes after each dose of antagonist. Up to three cumulative doses of the antagonist were given to a single animal.

serotonin receptors = test: Inhibition of 5-HTP-Induced Head Twitching; assay type: in vivo; settings: male CD1 mice; for Inhibit. of 5-HTP-Head Twitch (result in words): @ 10 (mg/kg, p.o.); for Inhibit. of 5-HTP-Head Twitch ED50: 5-HTP 160 mg/kg i.v. after one hour
Procedure: Inhibition of 5-HTP-Induced Head Twitching
This test detects compounds with antagonistic activity of serotonin receptors in vivo, and is a modified procedure of Corne, Pickering and Warner, Brit. J. Pharmacol. 20, 106 (1963). Groups of male CD1 mice were fasted overnight but allowed water ad libitum. They were deprived of water during the course of the experiment. The mice were weighed and treated orally or parenterally with the test compound in a dose volume of 10 ml/kg. Doses of test substance were calculated based upon the active compound. Substances for oral administration were dissolved or suspended in a 0.5% aqueous methylcellulose (15 centipoises) vehicle containing 4 ml of Tween 80/l.
A dose of 160 mg/kg of L-5-hydroxytryptophan (5-HTP) was administered i.v. in a dose volume of 5 ml/kg after one hour. The test mouse was restrained in a rodent restrainer that allowed the tail to extend out the back. The tail was then placed in tepid (but not scalding) water for approximately 10 seconds to soften the skin and dilate the tail vein. A 1 ml syringe and 25 gauge (5/8 inch) needle was used to administer the 5-HTP solution into one of the lateral tail veins.
A timer was started after dosing with 5-HTP to the first animal of the test group. […] A head twitch involves the head, neck and ears and has the appearance of an exaggerated pinal reflex. The number of head twitches for each individual vehicle-treated mouse were recorded to establish a historical baseline.
The active compounds in the test block the twitch response (the response rated all or none).

[2] = tested on: Serotonin-Induced Smooth Muscle Contractions (rabbit thoracic aorta); test: Inhibition of Serotonin-Induced Smooth Muscle Contractions (isolated thoracic aorta strips); assay type: cell-based; settings: Oryctolagus cuniculus, 10 min, concentration shifting the serotonin dose curve 10x to the right, 10 min preincubation, read-out: 5-HT-Induced Smooth Muscle Contraction DR10
Procedure: Inhibition of Serotonin-Induced Smooth Muscle Contractions
The test objects of this Example were canines and rabbits. Rabbits were sacrificed by T-61 injection and the thoracic aorta was removed immediately. The aorta was placed in warmed, oxygenated Krebs-Henseleit buffer. After the tissue was cleaned, a 2-3 mm wide strip was cut helically from each aorta. A strip of approximately 5 cm was suspended in Krebs-Henseleit buffer at 37° C. in a 25 ml tissue bath and the tissues equilibrated at an initial resting tension of 4 g for 90-120 minutes. An initial serotonin dose curve, 0.01-10 μM was then done on each tissue, followed by a 60 minute washout and reequilibration. The test drug was then added for a 10 minute preincubation and another serotonin dose curve was done using 0.01-100 μM.
Results are expressed as DR10 values. This is the concentration of the compound required to shift the serotonin dose curve 10x to the right, i.e., the concentration of antagonist at which the concentration of serotonin required for 50% maximal contraction is increased ten-fold.

5HT1A receptor = biological target: T2, 5HT1A receptor (Rattus norvegicus, UniProt P19327); test: Brain Serotonin (5HT1A) radioreceptor Assay (3H-8-OH DPAT displacement, rat frontal cortex membranes); assay type: binding; settings: for IC50: rat frontal cortex membranes, pH 7.4, read-out: Brain 5-HT1 Receptor IC50
T2 construct: Membrane fragments were prepared from prefrontal cortex; from tissue; host or cells: prefrontal/frontal cortex of female rats (about 150 g), membrane fragments
T2 sequence (P19327 1-422): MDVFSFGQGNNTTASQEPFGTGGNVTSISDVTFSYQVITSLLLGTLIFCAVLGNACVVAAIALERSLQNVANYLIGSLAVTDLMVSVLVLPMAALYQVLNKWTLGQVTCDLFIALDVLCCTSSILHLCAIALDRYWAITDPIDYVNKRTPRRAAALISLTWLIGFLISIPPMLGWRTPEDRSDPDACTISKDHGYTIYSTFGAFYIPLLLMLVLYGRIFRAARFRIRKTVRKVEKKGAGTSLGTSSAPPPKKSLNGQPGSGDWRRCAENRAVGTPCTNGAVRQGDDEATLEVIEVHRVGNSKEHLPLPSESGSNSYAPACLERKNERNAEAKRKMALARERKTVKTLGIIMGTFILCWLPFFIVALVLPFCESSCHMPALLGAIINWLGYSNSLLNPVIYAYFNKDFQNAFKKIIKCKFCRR
Procedure: Brain Serotonin (5HT1A) radioreceptor Assay
The text objects of this procedure were rat frontal cortex membranes. Membrane fragments were prepared from prefrontal cortex disected from brains obtained from female rats (≈150 g). The 5HT1A sites were labeled with ^3 H-8-OH dipropylaminotetralin (8-OH-DPAT). Membrane fragments, ^3 H-8-OH DPAT, TRIS buffer (pH 7.4) and unlabeled compound were incubated for 10 minutes at 37° C. and then for 10 minutes at 4° C. Separation of bound from unbound ^3 H-8-OH DPAT was performed by vacuum filtration on a glass fiber disc. The ability of a compound to compete with ^3 H-8-OH DPAT for binding sites is a measure of the affinity of the compound for the 5HT1A receptor. Specific binding was determined by the difference between total counts bound and the counts bound in the presence of […] 5-hydroxytryptamine.

5HT2 [3] = biological target: T1, 5HT2; test: Brain Serotonin (5-HT2) Radioreceptor Assay (3H-ketanserin displacement, rat frontal cortex membranes); assay type: binding; set-up: dissected from brains obtained from female rats; from tissue; host or cells: frontal cortex of female rats (about 150 g), membrane fragments; settings: 15 min at 37° C
Procedure: Brain Serotonin (5-HT2) Radioreceptor Assay
The test objects of this Example were rat frontal cortex membranes. Mebrane fragments were prepared from the frontal cortex dissected from brains obtained from female rats (≈150 g). […] Compound bound to the receptor site was separated from the remaining unbound compound by vacuum filtration. […] Specific binding was determined by the difference between total counts bound and counts bound in the presence of 10^-6 M methysergide.

[4] = tested on: serotonin-induced platelet aggregation; test: Platelet Aggregation Assay (serotonin-induced); assay type: cell-based; settings: Platelet; human plasma, serotonin 5 μM
Procedure: Platelet Aggegation Assay
Human blood was collected into tubes containing sodium citrate. The plasma was separated by centrifugation and was used as the source of platelets. Serotonin (5 μM) was used as the agonist to induce platelet aggregation. A control aggregation curve (as measured by the decrease in absorbance in transmitted light) was obtained in the presence of serotonin and in the absence of test compound. The test compound was added to an identical sample in a cuvette for one minute before addition of serotonin to yield the experimental curve.

[5] = tested on: alpha1 adrenergic receptor; test: Alpha1 Blockade in vivo (inhibition of phenylephrine pressor response); set-up: species or system spontaneously hypertensive rats (SHR); settings: anesthetized, vagotomized SHR; i.v.
Procedure: The potency of these compounds as alpha1 adrenergic antagonists was determined using the following procedure: adult male spontaneously hypertensive rats (SHR) were anesthetized and bilaterally vagotomized. A carotid artery and jugular vein were cannulated for monitoring mean arterial blood pressure and drug administration, respectively. The percent inhibition of alpha1 adrenergic receptor activation was quantified by measuring pressor responses to phenylephrine before and after antagonist treatment. […] Compounds were tested to the limits of their solubility for intravenous administration.

[6] = @ 1 μM, 3H-8-OH DPAT, read-out: Brain 5-HT1 Receptor % displaced (% inhibition)

T1 sequence (P14842 whole entry): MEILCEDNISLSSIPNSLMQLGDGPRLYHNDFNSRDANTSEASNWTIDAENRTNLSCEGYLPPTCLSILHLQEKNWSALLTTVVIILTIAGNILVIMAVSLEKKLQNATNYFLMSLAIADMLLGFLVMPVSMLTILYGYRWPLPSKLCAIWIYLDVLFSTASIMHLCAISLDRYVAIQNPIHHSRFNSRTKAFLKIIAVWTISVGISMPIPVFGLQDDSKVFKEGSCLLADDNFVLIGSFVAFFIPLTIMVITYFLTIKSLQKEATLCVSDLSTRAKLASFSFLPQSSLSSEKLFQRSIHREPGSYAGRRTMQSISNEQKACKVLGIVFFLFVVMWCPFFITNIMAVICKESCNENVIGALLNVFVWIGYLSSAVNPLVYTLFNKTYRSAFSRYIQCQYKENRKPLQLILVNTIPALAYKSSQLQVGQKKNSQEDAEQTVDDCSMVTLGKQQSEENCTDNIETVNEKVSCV

Row | SMILES | ED50 (5HT2 [1]) [mg/kg] | Inhibit. of 5-HTP-Head Twitch (result in words) (serotonin receptors) | IC (10-fold shift) [2] [µM] | inhibition at 1 µM (5HT1A receptor; [6]) [%] | IC50 (5HT2 [3]) [nM] | IC50 [4] [nM] | Inhibit. of 5-HTP-Head Twitch ED50 (serotonin receptors) | also measured
1 | O=C(c1ccccc1)n1c(=O)n(CCN2CCC(=C(c3ccc(F)cc3)c3ccc(F)cc3)CC2)c(=O)c2cscc21 [Example 8] | 0.038 | Inact. | 0.01 | 0 | 200 | – | – | –
2 | O=c1[nH]c2cscc2c(=O)n1CCCCCN1CCC(=C(c2ccc(F)cc2)c2ccc(F)cc2)CC1 [Example 20, 3-[5-[4-[Bis(4-fluorophenyl)methylene]piperidin-1-yl]pentyl]thieno[3,4-d]pyrimidine-2,4-dione] | – | – | 0.085 | – | 650 | 300 | – | IC50 (5HT1A receptor; 3H-8-OH DPAT): 270 nM
3 | Cc1scc2[nH]c(=O)n(CCN3CCC(C(=O)c4ccc(F)cc4)CC3)c(=O)c12 [Example 16, 3-[2-[4-(4-Fluorobenzoyl)piperidin-1-yl]ethyl]-5-methylthieno[3,4-d]pyrimidine-2,4-dione] | 0.119 | – | 0.019 | 2 | 7 | 380 | – | –
4 | CCCCn1c(=O)n(CCN2CCC(C(=O)c3ccc(F)cc3)CC2)c(=O)c2ccsc21 [Example 18, 1-Butyl-3-[2-[4-(4-fluorobenzoyl)piperidin-1-yl]ethyl]thieno[2,3-d]pyrimidine-2,4-dione] | – | Inact. | – | 17 | 23 | – | – | –
5 | Cn1c(=O)n(CCN2CCC(=C(c3ccc(F)cc3)c3ccc(F)cc3)CC2)c(=O)c2cscc21 [Example 23] | > 0.3 | – | 0.066 | – | 1.8 | 17000 | – | IC50 (5HT1A receptor; 3H-8-OH DPAT): 3000 nM
6 | CC(C)(C)C(=O)n1c(=O)n(CCN2CCC(=C(c3ccc(F)cc3)c3ccc(F)cc3)CC2)c(=O)c2cscc21 [Example 7, 3-[2-[4-[Bis(4-fluorophenyl)methylene]piperidin-1-yl]ethyl]-1-(2,2-dimethyl-1-oxopropyl)thieno[3,4-d]pyrimidine-2,4-dione] | 0.038 | – | 0.02 | 3 | 0.31 | 2500 | – | –
7 | O=c1[nH]c2cscc2c(=O)n1CCN1CC=C(c2ccccc2)CC1 [Example 24, 3-[2-[4-Phenyl-1,2,3,6-tetrahydropyridin-1-yl]ethyl]thieno[3,4-dy]pyrimidine-2,4-dione] | – | Inact. | – | – | 29 | – | – | inhibition at 1 µM (5HT1A receptor; read-out: Brain 5-HT1 Receptor % displaced (% inhibition)): 53%
8 | O=C(c1ccc(F)cc1)C1CCN(CCn2c(=O)c3cscc3n(C(=O)c3ccccc3)c2=O)CC1 [Example 12, 1-Benzoyl-3-[2-[4-(4-fluorobenzoyl)piperidin-1-yl]ethyl]thieno[3,4-d]pyrimidine-2,4-dione] | – | – | – | 24 | 8.5 | 100 | 1.74 mg/kg, p.o. | 5-HT-Induced Pressor Response, % attenuation (5HT2 [1]; @ 0.3 (mg/kg), anesthetized SHR, 5HT 100 μg/kg i.v.): 44%
9 | CCCCn1c(=O)n(CCN2CCC(C(=O)c3ccc(F)cc3)CC2)c(=O)c2cscc21 [Example 15, 1-Butyl-3-[2-[4-(4-fluorobenzoyl)piperidin-1-yl]ethyl]thieno[3,4-d]pyrimidine-2,4-dione 1/4 Hydrate] | – | – | – | 0 | 450 | – | 1-10 mg/kg, p.o. | –
10 | Cc1scc2[nH]c(=O)n(CCN3CCC(=C(c4ccc(F)cc4)c4ccc(F)cc4)CC3)c(=O)c12 [Example 17] | – | Inact. | – | 0 | 32 | – | – | –
11 | CC(C)(C)C(=O)n1c(=O)n(CCN2CCC(C(=O)c3ccc(F)cc3)CC2)c(=O)c2cscc21 [Example 13] | – | – | 0.03 | 31 | 15 | – | 1.98 mg/kg, p.o. | –
12 | O=C(c1ccc(F)cc1)C1CCN(CCCCn2c(=O)[nH]c3cscc3c2=O)CC1 [Example 19, 3-[4-[4-(4-Fluorobenzoyl)piperidin-1-yl]butyl]thieno[3,4-d]pyrimidine-2,4-dione] | – | – | – | – | 12.5 | – | 1-10 mg/kg, p.o. | IC50 (5HT1A receptor; 3H-8-OH DPAT): 210 nM
13 | O=C(c1ccc(F)cc1)C1CCN(CCn2c(=O)[nH]c3sccc3c2=O)CC1 [Example 2, 3-[2-[4-(4-Fluorobenzoyl)piperidin-1-yl]ethyl]thieno[2,3-d]pyrimidine-2,4-dione] | 0.016 | – | – | – | 1.6 | – | 0.26 mg/kg, p.o. | inhibition at 10 µM (5HT1A receptor; @ 10 μM, 3H-8-OH DPAT, read-out: Brain 5-HT1 Receptor % displaced (% inhibition)): 24%; Phenylephrine-Induced Pressor Response ED50 [5]: < 3.0 mg/kg
